Assay results from patent US11413278B2, “Compounds and methods for promoting stress resistance” (priority 2015, dated 2022).
Read-outs that look alike come from different tables or passages of the source.

What was measured:
LC3A/B puncta = assay: Autophagy induction analysis (LC3A/B puncta immuno-staining); type: cell-based, human
Method in brief: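 WI-38 cells were treated with compounds for 24 hrs, then immunostained for LC3A/B (overnight, 4° C) with DAPI counterstain and imaged by high-content microscopy. Experiment 1 used total puncta intensity. Experiment 2 used LAMP2-colocalized (lysosomal) puncta. Intensity was normalized to nuclei count.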

NRF2 [1] = assay: in vitro; type: cell-based, human
NRF2 [2] = assay: qPCR analysis of NRF2-regulated genes; type: cell-based, human; conditions: for fold induction at 10 µM: Homo sapiens; for Potential NRF2 Activation (>=2 target genes induced, by >=1.5-fold): Assay 13(p)
Method in brief: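 WI-38 cells treated with compound at 10 μM for 24 hrs, then processed by Cells-to-Ct for RNA isolation, RT and qPCR of NRF2-regulated genes (HMOX1, NQO1, GCLC, GSTM1). Expression normalized to B2M, PPIA and GAPDH; siRNA knockdown of FOXO3 or NRF2 (10 nM) preceded treatment in some runs.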

C. elegans = C. elegans lifespan assays (liquid and plate); type: in vivo, Caenorhabditis elegans; conditions: for ILS at 60 µM / ILS at 66 µM: Caenorhabditis elegans; for Extension of C. elegans' lifespan (qualitative): in at least 3 to 4 trials, group range ~10% to ~50%; for O = Life span- extending scores in worms: score scale 0 to 2, 4 to 6 independent trials; for M = Lifespan-extending scores in worms: summary score
[3] = 24 h, Assay 12(o), at 10 uM, qPCR, read-out: Induction of NRF2-regulated genes: GCLC normalized fold-change
[4] = 24 h, Assay 12(o), at 10 uM, qPCR, read-out: Induction of NRF2-regulated genes: NQO1 normalized fold-change
[5] = rounded fold change, WI-38 cells, 10 μM, 24 hrs (RP29 for Gr-4D), read-out: Summary of effects on NRF2-regulated genes: NQO1
[6] = rounded fold change, WI-38 cells, 10 μM, 24 hrs, read-out: Summary of effects on NRF2-regulated genes: GCLC
[7] = 10 μM, 24 hrs, WI-38 cells, qPCR, normalized to B2M, n = 4, read-out: GCLC expression, normalized fold change (NRF2-regulated gene)
[8] = 10 μM, 24 hrs, WI-38 cells, qPCR, normalized to B2M, n = 4, read-out: NQO1 expression, normalized fold change (NRF2-regulated gene)
[9] = WI-38 cells, 10 μM, 24 hrs, n=4, qPCR normalized by B2M, read-out: GCLC Normalized fold change
[10] = WI-38 cells, 10 μM, 24 hrs, n=4, qPCR normalized by B2M, read-out: GSTM1 Normalized fold change
[11] = WI-38 cells, 10 μM, 24 hrs, n=4, qPCR normalized by B2M, read-out: HMOX1 Normalized fold change
[12] = WI-38 cells, 10 μM, 24 hrs, n=4, qPCR normalized by B2M, read-out: NQO1 Normalized fold change
[13] = 60 μM, in liquid, wild type, with FuDR, 1.0 × 10^9 bacteria/ml, read-out: relative change of mean lifespan vs control, Trial 1
[14] = 60 μM, in liquid, wild type, with FuDR, 2.5 × 10^9 bacteria/ml, read-out: relative change of mean lifespan vs control, Trial 2
[15] = 60 μM, on plate, CF512 temperature-sensitive sterile animals, without FuDR, 2.0 × 10^10 bacteria/ml, read-out: relative change of mean lifespan vs control, Trial 3
[16] = Assay 2(z), 1.0 × 10^9 bacteria/ml, wild type + FuDR (2012 July), read-out: Lifespan assay in liquid
[17] = Assay 3(aa), 2.5 × 10^9 bacteria/ml, wild type + FuDR, read-out: Lifespan assay in liquid
[18] = Assay 4(ab), 2.0 × 10^10 bacteria/ml, CF512 worms, no FuDR, read-out: Lifespan assay on plates
[19] = 24 h, Assay 12(o), at 10 uM, qPCR, read-out: Induction of NRF2-regulated genes: HMOX1 normalized fold-change
[20] = rounded fold change, WI-38 cells, 10 μM, 24 hrs (RP11 for Gr-1D, RP29 for Gr-4D), read-out: Summary of effects on NRF2-regulated genes: HMOX1
[21] = 10 μM, 24 hrs, WI-38, read-out: Expression of at least two NRF2 target genes
[22] = 10 μM, 24 hrs, WI-38 cells, qPCR, normalized to B2M, n = 4, read-out: HMOX1 expression, normalized fold change (NRF2-regulated gene)

Compound	H = Potential Autophagy Induction (LC3A/B puncta; score)	H = Potential Autophagy Induction (LC3A/B puncta; summary score)	J = NRF2-dependency for H2O2-resistance (NRF2 [1]; score)	J = NRF2-dependency for H2O2-resistance (NRF2 [1]; summary score)	F = Potential NRF2 Activation (NRF2 [2]; 2-point score)	fold induction at 10 µM (NRF2 [2]; [4])	fold induction at 10 µM (NRF2 [2]; [5])	fold induction at 10 µM (NRF2 [2]; [8])	fold induction at 10 µM (NRF2 [2]; [9])	fold induction at 10 µM (NRF2 [2]; [10])	fold induction at 10 µM (NRF2 [2]; [11])	fold induction at 10 µM (NRF2 [2]; [12])	F = Potential NRF2 Activation (NRF2 [2]; summary score)	ILS at 60 µM (C. elegans; [13]) [%]	ILS at 60 µM (C. elegans; [14]) [%]	ILS at 60 µM (C. elegans; [15]) [%]	ILS at 66 µM (C. elegans; [16]) [%]	ILS at 66 µM (C. elegans; [17]) [%]	ILS at 66 µM (C. elegans; [18]) [%]	O = Life span- extending scores in worms (C. elegans)	also measured
[O-][n+]1onc2c3nsnc3c(Br)cc21 [O17]	0	0	0	0	0	1.47	1.47	1.47	1.35	1.12	1.08	1.47	0	1.7	22.6	19.7	1.7	22.6	19.7	2 (2 for observed in more than 2 trials)	Induction of at least two NRF2-regulated genes (HMOX1, NQO1, GCLC, GSTM1) (NRF2 [2]; 10 μM, 24 hrs, WI-38): could induce expression of at least two genes; fold induction at 10 µM (NRF2 [2]; [3]): 1.36; fold induction at 10 µM (NRF2 [2]; [6]): 1.36; fold induction at 10 µM (NRF2 [2]; [7]): 1.36; relative change of mean lifespan vs control, Trial 6 (confirmative) (C. elegans; 60 μM, on plate, temperature-sensitive sterile animals, without FuDR, 1.0 × 10^11 bacteria/ml): +20.8%; relative change of mean lifespan vs control, Trial 5 (confirmative) (C. elegans; 60 μM, on plate, temperature-sensitive sterile animals, without FuDR, 2.0 × 10^10 bacteria/ml): +15.2%; ILS at 60 µM (C. elegans; 60 μM, on plate, CF512 temperature-sensitive sterile animals, without FuDR, 1.0 × 10^11 bacteria/ml, read-out: relative change of mean lifespan vs control, Trial 4): 17.8%; ILS at 66 µM (C. elegans; Assay 5(ac), 1.0 × 10^11 bacteria/ml, CF512 worms, no FuDR, read-out: Lifespan assay on plates): 17.8%; ILS at 66 µM (C. elegans; Assay 6(ad), 2.0 × 10^10 bacteria/ml, CF512 worms, no FuDR, read-out: Lifespan assay on plates): 15.2%; ILS at 66 µM (C. elegans; Assay 7(ae), 1.0 × 10^11 bacteria/ml, CF512 worms, no FuDR, read-out: Lifespan assay on plates): 20.8%; Extension of C. elegans' lifespan (qualitative) (C. elegans): could extend animal's lifespan; M = Lifespan-extending scores in worms (C. elegans): 2 (2 for observed in more than 2 trials)
Cc1cc(C)c(C(=O)/C=C/c2ccccc2F)c(O)n1 [O18]	0	0	1	1	2	2.94	2.94	2.94	2.1	1.52	23.8	2.94	2	22.1	11.8	3.8	22.1	11.8	3.8	1 (1 for lifespan extension observed in 2 trials)	NRF2-dependency for H2O2-resistance, at 10 uM - with H2O2, 2nd experiment (NRF2 [1]; 10 uM, experiment 2 (2nd), with H2O2): 2nd, partial.; NRF2-dependency for H2O2-resistance, at 10 uM (experiment 3) - with & without H2O2 (NRF2 [1]; 10 uM, experiment 3, with & without H2O2): YES; NRF2-dependency for H2O2-resistance (experiment 3) (NRF2 [1]; 10 uM, with & without H2O2, NRF2 knockdown in WI-38 cells, YES = resistance reduced by at least 50%, partial = 25% to 50%): YES; NRF2-dependency for H2O2-resistance, 2nd experiment (NRF2 [1]; 10 uM, with H2O2, NRF2 knockdown in WI-38 cells, YES = resistance reduced by at least 50%, partial = 25% to 50%): partial.; Assay 17: NRF2-dependency for H2O2-resistance (NRF2 [1]; 10 uM, YES/NO): YES; NRF2-dependency of H2O2-resistance (NRF2 siRNA knockdown) (NRF2 [1]; at least 2 of 3 independent experiments): significantly attenuate; Potential NRF2 Activation (>=2 target genes induced, by >=1.5-fold) (NRF2 [2]): YES; fold induction at 10 µM (NRF2 [2]; [3]): 2.1; fold induction at 10 µM (NRF2 [2]; 24 h, Assay 12(o), at 10 uM, qPCR, read-out: Induction of NRF2-regulated genes: GSTM1 normalized fold-change): 1.52; fold induction at 10 µM (NRF2 [2]; [19]): 23.8; fold induction at 10 µM (NRF2 [2]; [20]): 23.8; fold induction at 10 µM (NRF2 [2]; rounded fold change, WI-38 cells, 10 μM, 24 hrs (RP29 for Gr-4D), read-out: Summary of effects on NRF2-regulated genes: GSTM1): 1.52; fold induction at 10 µM (NRF2 [2]; [6]): 2.1; fold induction at 10 µM (NRF2 [2]; [21]): > 1.5; fold induction at 10 µM (NRF2 [2]; [7]): 2.1; fold induction at 10 µM (NRF2 [2]; 10 μM, 24 hrs, WI-38 cells, qPCR, normalized to B2M, n = 4, read-out: GSTM1 expression, normalized fold change (NRF2-regulated gene)): 1.52; fold induction at 10 µM (NRF2 [2]; [22]): 23.8; M = Lifespan-extending scores in worms (C. elegans): 1 (1 for lifespan extension observed in 2 trials)
COc1ccc(C(=O)/C=C/c2ccccc2Br)c(OC)c1 [Gr-4B]	0	0	0	0	2	2.36	2.36	2.36	1.15	1.15	4.51	2.36	2	8.1	14.5	10.7	8.1	14.5	10.7	1 (1 for lifespan extension observed in 2 trials)	Potential NRF2 Activation (>=2 target genes induced, by >=1.5-fold) (NRF2 [2]): YES; fold induction at 10 µM (NRF2 [2]; [19]): 4.51; fold induction at 10 µM (NRF2 [2]; [20]): 4.51; fold induction at 10 µM (NRF2 [2]; [21]): > 1.5; fold induction at 10 µM (NRF2 [2]; [22]): 4.51; M = Lifespan-extending scores in worms (C. elegans): 1 (1 for lifespan extension observed in 2 trials)
CCCC(=O)Nc1ccc(-c2cn3cccc(C)c3n2)cc1 [O12]	0	0	0	0	0	0.66	0.69	0.69	0.531	1.21	0.821	0.692	0	36.8	9.6	6.6	36.8	9.6	6.6	2 (2 for observed in more than 2 trials)	fold induction at 10 µM (NRF2 [2]; [3]): 0.54; fold induction at 10 µM (NRF2 [2]; [19]): 0.76; fold induction at 10 µM (NRF2 [2]; [20]): 0.82; fold induction at 10 µM (NRF2 [2]; [6]): 0.53; fold induction at 10 µM (NRF2 [2]; [7]): 0.53; fold induction at 10 µM (NRF2 [2]; [22]): 0.82; Extension of C. elegans' lifespan (qualitative) (C. elegans): could extend animal's lifespan; M = Lifespan-extending scores in worms (C. elegans): 2 (2 for observed in more than 2 trials)
